Experimental findings from patent publication US9931327B2, “Derivatives of 1-phenyl-2-pyridinyl alkyl alcohols as phosphodiesterase inhibitors” (Chiesi Farmaceutici S.p.A., priority 2011, dated 2018) are described below.

As a reminder, the IC50 is the concentration that gives 50% inhibition.

For one experiment, the system named is LPS-induced TNF-α release in peripheral blood mononuclear cells (PBMCs). Put plainly: In vitro determination of PDE4 inhibitory activity in the PBMCs assay (LPS-induced TNF-α release). In kind it is cell-based, human. Particulars: PBMC; human PBMCs, LPS 3 ng/ml, 18 hours, TNF-α by ELISA; read-out: PDE4 inhibition (IC50, 50% inhibition of LPS-induced TNF-α release). In outline: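 Cryopreserved human PBMCs (10^5 cells/well) pre-incubated 30 min with compound (10^−12 to 10^−6 M or 10^−3 to 10^−7 M), then stimulated with LPS 3 ng/ml for 18 h at 37 °C. TNF-α in medium by ELISA; IC50 as mean ± 95% confidence limits.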
A general note: An ELISA detects its analyte on a solid surface through an enzyme-linked reagent.
In the case of `CN(C)S(=O)(=O)c1cccc(S(=O)(=O)N2CCS[C@H]2C(=O)O[C@@H](Cc2c(Cl)c[n+]([O-])cc2Cl)c2ccc(OC(F)F)c(OCC3CC3)c2)c1` [Compound 97, 3,5-dichloro-4-((S)-2-(3-(cyclopropylmethoxy)-4-(difluoromethoxy)phenyl)-2-((S)-3-(3-(N,N-dimethylsulfamoyl)phenylsulfonyl)thiazolidine-2-carbonyloxy)ethyl)pyridine 1-oxide], the IC50 is below 0.1 nM. As for `CNS(=O)(=O)c1ccc(S(=O)(=O)N2CCSCC2C(=O)O[C@@H](Cc2c(Cl)c[n+]([O-])cc2Cl)c2ccc(OC(F)F)c(OCC3CC3)c2)cc1` (stereo partly drawn) [Compound 81, 3,5-dichloro-4-((2S)-2-(3-(cyclopropylmethoxy)-4-(difluoromethoxy)phenyl)-2-(4-(4-(N-methylsulfamoyl)phenylsulfonyl)thiomorpholine-3-carbonyloxy)ethyl)pyridine 1-oxide], the IC50 is 0.1 to 1 nM.

Regarding `NCCc1ccc(C(=O)N2CCSC2C(=O)O[C@@H](Cc2c(Cl)c[n+]([O-])cc2Cl)c2ccc(OC(F)F)c(OCC3CC3)c2)cc1` (stereo partly drawn) [Compound 22, 4-((2S)-2-(3-(4-(2-aminoethyl)benzoyl)thiazolidine-2-carbonyloxy)-2-(3-(cyclopropylmethoxy)-4-(difluoromethoxy)phenyl)ethyl)-3,5-dichloropyridine 1-oxide], the IC50 lay in the range of 0.1 to 1 nM. On the same count and under the same terms, the result for `Cc1noc2ncc(S(=O)(=O)N3CCSC3C(=O)O[C@@H](Cc3c(Cl)c[n+]([O-])cc3Cl)c3ccc(OC(F)F)c(OCC4CC4)c3)cc12` (stereo in doubt) [Compound 239, 3,5-dichloro-4-((S)-2-(3-(cyclopropylmethoxy)-4-(difluoromethoxy)phenyl)-2-((S)-3-(3-methylisoxazolo[5,4-b]pyridin-5-ylsulfonyl)thiazolidine-2-carbonyloxy)ethyl)pyridine 1-oxide] reads below 0.1 nM. For the compound `N#Cc1cccc(S(=O)(=O)N2CCS[C@H]2C(=O)O[C@@H](Cc2c(Cl)c[n+]([O-])cc2Cl)c2ccc(OC(F)F)c(OCC3CC3)c2)c1` [Compound 207, 3,5-dichloro-4-((S)-2-((S)-3-(3-cyanophenylsulfonyl)thiazolidine-2-carbonyloxy)-2-(3-(cyclopropylmethoxy)-4-(difluoromethoxy)phenyl)ethyl)pyridine 1-oxide], the IC50 was in the range of 0.1 to 1 nM. The same measure, in the same setting: with `CN(C)C(=O)c1cccc(S(=O)(=O)N2CCC[C@@H](C(=O)O[C@@H](Cc3c(Cl)c[n+]([O-])cc3Cl)c3ccc(OC(F)F)c(OCC4CC4)c3)C2)c1` [Compound 228] the figure was 0.1 to 1 nM; with `O=C(O[C@@H](Cc1c(Cl)c[n+]([O-])cc1Cl)c1ccc(OC(F)F)c(OCC2CC2)c1)[C@H]1CCCN1S(=O)(=O)c1ccccc1` [Compound 244, 3,5-dichloro-4-((S)-2-(3-(cyclopropylmethoxy)-4-(difluoromethoxy)phenyl)-2-((R)-1-(phenylsulfonyl)pyrrolidine-2-carbonyloxy)ethyl)pyridine 1-oxide], 1 to 10 nM.

Turning to `O=C(O[C@@H](Cc1c(Cl)c[n+]([O-])cc1Cl)c1ccc(OC(F)F)c(OCC2CC2)c1)C1SCCN1S(=O)(=O)c1cccc(Cl)c1` (stereo partly drawn) [Compound 63, 3,5-dichloro-4-((2S)-2-(3-(3-chlorophenylsulfonyl)thiazolidine-2-carbonyloxy)-2-(3-(cyclopropylmethoxy)-4-(difluoromethoxy)phenyl)ethyl)pyridine 1-oxide], the IC50 lay within 0.1 to 1 nM. Still for that read-out and setting: the result for `CN(C)C(=O)c1cccc(S(=O)(=O)N2CCC[C@@H]2C(=O)O[C@@H](Cc2c(Cl)c[n+]([O-])cc2Cl)c2ccc(OC(F)F)c(OCC3CC3)c2)c1` [Compound 55, 3,5-dichloro-4-((S)-2-(3-(cyclopropylmethoxy)-4-(difluoromethoxy)phenyl)-2-((R)-1-(3-(dimethylcarbamoyl)phenylsulfonyl)pyrrolidine-2-carbonyloxy)ethyl)pyridine 1-oxide] reads 0.1 to 1 nM.

Still in this experiment, the particulars now being: PBMC; human PBMCs, LPS 3 ng/ml, 18 hours; compounds of formula (II); read-out: PDE4 inhibition (IC50, 50% inhibition of LPS-induced TNF-α release).
Regarding `O=C(O[C@@H](Cc1c(Cl)c[n+]([O-])cc1Cl)c1ccc(OC(F)F)c(OCC2CC2)c1)[C@@H]1CSCN1` [Compound 11], the IC50 lay in the range of 0.1 to 1 nM.
